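Cells were grown in 96-well plates and exposed to each compound for 48 hours at five concentrations; endpoints were interpolated linearly between bracketing concentrations, or set to the highest concentration if not reached. GI50: concentration for 50% inhibition of growth.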 Calls of active or inactive are those of the source. No stated cut-off is given here; in the data, active = GI50 up to about 1.1 µM and inactive = higher.

Test systems include NCI-H226; MOLT-4; 786-0; MCF7; MDA-MB-435; SK-MEL-5; SF-295; Malme-3M; U-251; CCRF-CEM; HCC 2998; SN12C; SF-268; DLD-1; COLO 205; SK-OV-3; SNB-75; OVCAR-4; SNB-19; UACC-62.
Holding throughout (assay): NCI-60 cell line screen, 48 h

For the molecule `CCN(CC)CCC(=O)N1C/C(=C/c2ccccc2)C(=O)/C(=C\c2ccccc2)C1`, the GI50 is 5320 nM (inactive) in the test on NCI-H226; 280 nM (active) in the test on MOLT-4; 2160 nM (inactive) in the test with 786-0; 372 nM (active) in the test with MCF7; 1700 nM (inactive) in the test on MDA-MB-435; 1760 nM (inactive) in the test with SK-MEL-5. Also, the GI50 in the test on SF-295 was 2110 nM (inactive); in the test on Malme-3M, 2580 nM (inactive); with U-251, 762 nM (active); in the test with CCRF-CEM it was 219 nM (active); in the test with HCC 2998, 706 nM (active); in the test with SN12C it was 1300 nM (inactive). For the same molecule, the GI50 in the test with SF-268 is 2040 nM (inactive); in the test with DLD-1, 1290 nM (inactive); with COLO 205, 2310 nM (inactive); in the test on SK-OV-3 it was 8570 nM (inactive); in the test with SNB-75, 4080 nM (inactive); in the test on OVCAR-4 it was 2170 nM (inactive). The GI50 is 2200 nM (inactive) with SNB-19 and 2030 nM (inactive) with UACC-62.
Consider `COc1cc(NCc2ccc3nc(N)nc(N)c3c2C)cc(OC)c1OC`, for which the GI50 is 11400 nM (inactive) in the test with NCI-H226; 25 nM (active) in the test on MOLT-4; 1.06 nM (active) in the test with 786-0; 30.8 nM (active) in the test on MCF7; 36.5 nM (active) in the test on MDA-MB-435; 28.9 nM (active) with SK-MEL-5. The GI50 in the test with SF-295 is 30.8 nM (active); in the test on Malme-3M, 1550 nM (inactive); in the test with U-251 it was 37.9 nM (active); in the test with CCRF-CEM, 25 nM (active); in the test with HCC 2998, 109 nM (active); in the test on SN12C it was 31.6 nM (active). The GI50 in the test with SF-268 was 25.8 nM (active); in the test with DLD-1, 25.3 nM (active); in the test with COLO 205, 1070 nM (active); in the test with SK-OV-3, 2840 nM (inactive); in the test on SNB-75 it was 4370 nM (inactive); with OVCAR-4 it was 22400 nM (inactive). Moreover, the values for the GI50 in the test on SNB-19 and in the test with UACC-62 were 59.7 nM (active) and 25 nM (active), respectively.
Regarding `COC1=CC(=O)c2c(O)c3c(c(O)c2C1=O)C=C(C)OC3O` (stereo not given), the GI50 with NCI-H226 was 2900 nM (inactive); with MOLT-4 it was 1580 nM (inactive); in the test on 786-0, 3240 nM (inactive); with MCF7, 390 nM (active); with MDA-MB-435, 1250 nM (inactive); in the test on SK-MEL-5 it was 269 nM (active). Besides, the GI50 in the test on SF-295 is 2090 nM (inactive); in the test with Malme-3M it was 277 nM (active); with U-251, 2480 nM (inactive); with CCRF-CEM, 1640 nM (inactive); in the test with HCC 2998 it was 1560 nM (inactive); with SN12C it was 877 nM (active). The GI50 was 2180 nM (inactive) in the test on SF-268; 665 nM (active) in the test on DLD-1; 222 nM (active) in the test on COLO 205; 8450 nM (inactive) with SK-OV-3; 1570 nM (inactive) in the test on SNB-75; 1920 nM (inactive) in the test on OVCAR-4. The GI50 with SNB-19 is 2480 nM (inactive); in the test on UACC-62, 859 nM (active).

The values are drawn from ChEMBL document CHEMBL1201862, “PubChem BioAssay data set” (2004).
